# Results taken from a melting point compilation (Tetko et al.; mined from patent text by program, amines drawn as free bases though some values may be those of a salt).
row,Structure (SMILES),melting point [°C]
1,CCOC(=O)C1=CCCCC1S(=O)(=O)Nn1cccc1 (stereo unspecified),85 to 86
2,CCOC(=O)c1cccc(NC(=O)N2CCC(CNC[C@H](O)COc3cccc4[nH]c5ccccc5c34)CC2)c1,160
3,CS(=O)(=O)c1ccc(C(=O)N[C@H]2CC[C@H](CCN3CCC(c4cccc5c4CCO5)CC3)CC2)s1,255
4,O=C(O)CC(NS(=O)(=O)c1ccc2ccccc2c1)c1ccccc1 (stereo unspecified),123 to 126
5,CN1C(=O)CC2(CC(=O)N(Cc3ccccc3)C2)C1=O (stereo unspecified),157 to 158
6,Cc1cc(C(=O)Cl)ccc1[N+](=O)[O-],29 to 30
7,CCCCn1c(=O)[nH]c(=O)c2c1ncn2CC(C)=O,218
8,C/C(=C/C(=O)O)c1ccn(-c2c(C)cccc2C)c1,78 to 80
9,CN(C)CC1CCC2(CC1)Nc1cc(Cl)c(S(N)(=O)=O)cc1S(=O)(=O)N2 (stereo unspecified),273
10,COc1cccc(CC(=O)O)c1OCCCc1cn(-c2ccc(C(F)(F)F)nn2)nc1C(C)(C)C,131 to 132
11,CN=C(NOC)c1nn(-c2c(Cl)cc(C(F)(F)F)cc2Cl)c(N)c1S(C)=O (stereo unspecified),139 to 142
12,CC1N=C(c2ccccc2F)c2cc(Br)ccc2NC1=O (stereo unspecified),183 to 185
13,COCOc1ccc(Nc2ncccc2[N+](=O)[O-])cc1,80 to 81
14,CCOC(=O)Cc1c(-c2ccc(OC)cc2)sc2c1c(=O)c(C(=O)OCC)cn2Cc1ccccc1F,199 to 201
15,Cc1ccc(F)cc1C(=O)Nc1ccc(C(=O)N2Cc3cccn3-c3ccccc32)cn1,190 to 196
16,CC(C)c1nc2cc(NC(=O)c3c(C(=O)N4CC(F)C4)cnn3C)ccn2n1,226 to 227
17,Cc1cc(C(C)(C)CO)c(Cl)nn1,151 to 153
18,N#Cc1cc2c(nc1Cl)CCCCC2,126 to 127
19,CN1CCN(c2nc(NCc3ccco3)nc(Nc3ccc(O)cc3)n2)CC1,116 to 118
20,CCC1(CCSC(C)=O)C(=O)N2CCCC(C(=O)OC(C)(C)C)N2C1=O (stereo unspecified),82 to 84
21,CS(=O)(=O)c1ccc(-c2cc(Cl)c(Cl)cc2-c2ccc(F)cc2)cc1,144
22,Cc1ccc(Cn2c(C)cc(C)c(C#N)c2=O)cc1,178 to 181
23,Cc1nccn1CCC(C(N)=O)(c1ccccc1)c1ccccc1,191 to 193
24,CCCCc1oc2ccccc2c1-c1ncc(-c2ccc3cc(OCc4ccc(C(=O)OC)cc4)ccc3c2)o1,169 to 170

row,Structure (SMILES),melting point [°C]
1,O=[N+]([O-])c1cc(I)ccc1Nc1cccc(-c2ccccn2)c1,195 to 196
2,COc1ccc(Nc2nc(-c3cccc(C(=O)Nc4ccc(C(=O)O)cc4)c3)cn3ccnc23)cc1OC,> 250
3,CCCCCCCCCCCCc1cc(C(=O)OCC)no1,34 to 36
4,O=C1NC(=O)C2(O1)C(=O)N(Cc1ccc(Cl)c(Cl)c1)c1c(F)cccc12 (stereo unspecified),101 to 102
5,COc1ccc2nc(NC(=O)C(CC3CCCC3)c3ccc(S(=O)(=O)NCc4cccs4)cc3)sc2n1 (stereo unspecified),263 to 268
6,COc1c(CBr)cccc1CBr,83.5 to 85.5
7,CC(C)c1ccc(C2COc3ccc(NC(=O)CC(C)(C)C)cc32)cc1 (stereo unspecified),119 to 120
8,O=C(O)CCc1cn(Cc2ccc(OCc3csc(-c4ccncc4)n3)cc2)cc1-c1ccccc1,149 to 150
9,CCCC(=O)c1cnc2nc(C)c(OCC)cc2c1O,240 to 241
10,Fc1ccc(-c2nnc(Cl)cc2Cl)cc1,124 to 127
11,Cc1ccc(S(=O)(=O)Oc2cccc(NC(=O)NS(=O)(=O)c3ccccc3)c2)cc1,162 to 170
12,O=S(=O)(Nc1cc(O)ccc1Oc1ccccc1)C(F)(F)F,97 to 99
13,CN(CC(=O)Nc1ccccc1)C(=O)CN1CCCC1=O,145 to 146
14,COc1ccc(-c2cc(COS(C)(=O)=O)c(=O)n(CCCc3ccc(F)cc3)n2)cc1F,112 to 116
15,O=C(NN=Cc1ccccc1O)c1cc2ccccc2cc1O,> 285
16,CCCCCCOc1ccc(NC(=O)Nc2ccccc2CCc2cc(C(C)(C)C)c(O)c(C(C)(C)C)c2)cc1,174 to 176
17,O=[N+]([O-])c1ccc(Cc2cccnc2)cc1,87 to 88
18,CCCc1nc(C#N)c(C#N)nc1Oc1ccccc1,130 to 132
19,Cn1ccnc1COc1cc(Oc2ccc(S(C)(=O)=O)cc2)cc2cc(C3=NCC(CC(N)=O)S3)[nH]c12 (stereo unspecified),130 to 131
20,COc1ccc(Cc2cnc(N)nc2N)cc1,206 to 209
21,CCCCCCCCCCCCOc1cc(O)c(C(=O)c2ccccc2)cc1Cl,75 to 77
22,N#Cc1c(-c2ccc(Cl)c(Cl)c2)[nH]c(I)c1I,> 230
23,COC(=O)Cc1ccc(C(=O)OC)cn1,56 to 57
24,Cc1cnccc1-c1sc(NC(=O)c2ccncc2)nc1-c1ccco1,156 to 157

row,Structure (SMILES),melting point [°C]
1,CC(C)Cn1nc(-c2ccccc2)c(-c2ccccc2)c1CCl,92
2,CSC(=S)N1Cc2[nH]c3ccccc3c2CC1CO (stereo unspecified),114 to 116
3,Cc1cnc2c(c1)nc(C)n2-c1ccccc1,77 to 79
4,CC(=O)OC1CSC(Oc2cccc(-c3ccc(Cl)nc3)c2)C(OC(C)=O)C1OC(C)=O (stereo unspecified),129
5,CC1(C)CCC(C)(C)c2cc(-c3cc(-c4ccc(C(=O)O)cc4O)ccc3-c3ccccc3)ccc21,183 to 185
6,CCCCc1c(C(=O)c2ccc(O)cc2)c2cc([N+](=O)[O-])ccc2n1C,198
7,CN1CC=C(C(=O)N2c3ccccc3NC(=O)c3cscc32)CC1,210 to 212
8,O=C(O)C1=Cc2cccc(F)c2OC1C(F)(F)F (stereo unspecified),198 to 210
9,CC1(C)C=C(c2ccccn2)c2cc(C#N)ccc2OC1,155 to 157
10,O=C(O)c1cn(C2CC2)c2cc(N3CCC(c4cccnc4)C3)c(F)cc2c1=O (stereo unspecified),233 to 236
11,CC(=Cc1ccc(C(C)C)cc1)COc1cc(C)c(NC=O)c(C)c1C,153 to 155
12,COc1ccc(-c2cc(F)c3c(Cl)c(O)ccc3c2)cc1,120 to 124
13,COCCOc1cccc2cc(-c3nnn[nH]3)c(=O)oc12,215
14,"CC(OC(C)(C)C(=O)O)c1cc(-c2ccc(Cl)cc2)no1 (single isomer, unassigned; (+))",120 to 124
15,COc1ccc2ccccc2c1-c1c(C)c2c(c(C)c1P(=O)(c1ccccc1)c1ccccc1)COC2,105 to 107
16,Cc1c(=O)n(Cc2ccccc2)c(=O)n2cc(C(=O)NCc3ccccc3)sc12,176 to 178
17,COc1ccc2[nH]c(S(=O)Cc3nccc(N(C)C)c3Cl)nc2c1 (stereo unspecified),113 to 114
18,COc1ccc2c(OC(C)C)c(C(N)=O)ccc2c1,183 to 184
19,O=C1CCC(N2Cc3c(OCc4cc(CN5CCOCC5)co4)cccc3C2=O)C(=O)N1 (stereo unspecified),168 to 170
20,CS(=O)(=O)c1sccc1SCc1ccccc1,95 to 97
21,O=C1CCCc2ccccc2N1Cc1cccc(Br)c1,81 to 82
22,Cc1ccccc1C(=O)Nc1cccc(OCc2ccccc2)c1,114 to 115
23,Nc1nc2c(c3[nH]cnc13)CCCC2,> 300
